# Measurements taken from EP0908457B1, “3-(1,2-benzisothiazol- and isoxazol-5-Y1)-2,4(1H,3H)-pyrimidinedione or thione and 3-(1,2-benzisothiazol- and isoxazol-5-y1)-4(3H)-pyrimidinone or thione herbicidal agents” (BASF AKTIENGESELLSCHAFT, priority 1997, dated 1999).
# Legend:
# Cyperus iria = test: Preemergence weed control under flooded paddy conditions, CYPIR (Rice Flatsedge); assay type: in vivo; settings: flooded paddy; for CYPIR herbicidal effect rating / herbicidal effect rating, CYPIR: preemergence; for CYPIR: preemergence weeds, herbicidal effect rating 0-9, three to four weeks after treatment
# [1] = system: Echinochloa oryzoides (Ard.) Fritsch.; test: Preemergence weed control under flooded paddy conditions, ECHORC (Watergrass (Calif.)); assay type: in vivo; settings: flooded paddy; for ECHORC herbicidal effect rating / herbicidal effect rating, ECHORC: preemergence; for ECHORC: preemergence weeds, herbicidal effect rating 0-9, three to four weeks after treatment
# [2] = system: Monochoria vaginalis, Presl.; test: Preemergence weed control under flooded paddy conditions, MOOVA (Monochoria); assay type: in vivo; settings: flooded paddy; for MOOVA herbicidal effect rating / herbicidal effect rating, MOOVA: preemergence; for MOOVA: preemergence weeds, herbicidal effect rating 0-9, three to four weeks after treatment
# Sagittaria pygmaea, L. = test: Preemergence weed control under flooded paddy conditions, SAGPY (Arrowhead (Pygmaea)); assay type: in vivo; settings: flooded paddy; for SAGPY herbicidal effect rating / herbicidal effect rating, SAGPY: preemergence; for SAGPY: preemergence weeds, herbicidal effect rating 0-9, three to four weeks after treatment
# [3] = system: Cyperus serotinus, Rottb.; test: Preemergence weed control under flooded paddy conditions, CYPSE (Flatsedge); assay type: in vivo; settings: for CYPSE herbicidal effect rating / herbicidal effect rating, CYPSE: preemergence; for CYPSE: preemergence weeds, herbicidal effect rating 0-9, three to four weeks after treatment
# [4] = system: Oryza sativa, (L.) Tebonnet; test: Rice tolerance to post-transplant applications under flooded paddy conditions (Example 187), ORYSAT (Rice, Tebonnet); settings: for ORYSAT: herbicidal effect rating 0-9, three to four weeks after treatment; on herbicidal effect rating ORYSAT: meaning of each grade not given here
# [5] = Rate 0.0313 kg/ha, rated three to four weeks after treatment
# [6] = Rate 0.0625 kg/ha, rated three to four weeks after treatment
# [7] = Rate 0.1250 kg/ha, rated three to four weeks after treatment
# [8] = Rate 0.2500 kg/ha, rated three to four weeks after treatment
# [9] = Rate 0.0320 kg/ha, rated three to four weeks after treatment
# [10] = Rate 0.0620 kg/ha, rated three to four weeks after treatment
# [11] = Rate 0.0320 kg/ha, rated 3-4 weeks after treatment
# [12] = Rate 0.0620 kg/ha, rated 3-4 weeks after treatment
# [13] = Rate 0.1250 kg/ha, rated 3-4 weeks after treatment
# [14] = Rate 0.2500 kg/ha, rated 3-4 weeks after treatment
# [15] = Rate 0.5000 kg/ha, rated 3-4 weeks after treatment
structure (smiles),measurement,setting,value
"Cn1c(C(F)(F)F)cc(=O)n(-c2ccc3snc(COCCCCl)c3c2)c1=O [Example 224, 3-{3-[(3-Chloropropoxy)methyl]-1,2-benzisothiazol-5-yl}-1-methyl-6-(trifluoromethyl)-2,4(1H,3H)-pyrimidinedione]",CYPIR herbicidal effect rating,Cyperus iria; [5],4.0
same,CYPIR herbicidal effect rating,Cyperus iria; [6],7.0
same,CYPIR herbicidal effect rating,Cyperus iria; [7],8.0
same,CYPIR herbicidal effect rating,Cyperus iria; [8],8.0
same,ECHORC herbicidal effect rating,[1]; [5],6.0
same,ECHORC herbicidal effect rating,[1]; [6],9.0
same,ECHORC herbicidal effect rating,[1]; [7],9.0
same,ECHORC herbicidal effect rating,[1]; [8],9.0
same,MOOVA herbicidal effect rating,[2]; [5],9.0
same,MOOVA herbicidal effect rating,[2]; [6],9.0
same,MOOVA herbicidal effect rating,[2]; [7],9.0
same,MOOVA herbicidal effect rating,[2]; [8],9.0
same,SAGPY herbicidal effect rating,"Sagittaria pygmaea, L.; [5]",0.0
same,SAGPY herbicidal effect rating,"Sagittaria pygmaea, L.; [6]",2.0
same,SAGPY herbicidal effect rating,"Sagittaria pygmaea, L.; [7]",4.0
same,SAGPY herbicidal effect rating,"Sagittaria pygmaea, L.; [8]",8.0
same,CYPSE herbicidal effect rating,[3]; [5],0.0
same,CYPSE herbicidal effect rating,[3]; [6],0.0
same,CYPSE herbicidal effect rating,[3]; [7],2.0
same,CYPSE herbicidal effect rating,[3]; [8],7.0
same,ORYSAT herbicidal effect rating,[4]; [5],6.0
same,ORYSAT herbicidal effect rating,[4]; [6],7.0
same,ORYSAT herbicidal effect rating,[4]; [7],8.0
same,ORYSAT herbicidal effect rating,[4]; [8],9.0
"Cc1ccc(S(=O)(=O)NC(=O)c2nsc3ccc(-n4c(=O)cc(C(F)(F)F)n(C)c4=O)cc23)cc1 [Example 353, 1,2-Benzisothiazole-3-carboxamide, 5-[3,6-dihydro-3-methyl-2,6-dioxo-4-(trifluoromethyl)-1(2H)-pyrimidinyl]-N-(p-tolylsulfonyl)-]","herbicidal effect rating, CYPIR",Cyperus iria; [9],0.0
same,"herbicidal effect rating, CYPIR",Cyperus iria; [10],0.0
same,"herbicidal effect rating, CYPIR",Cyperus iria; [7],1.0
same,"herbicidal effect rating, CYPIR",Cyperus iria; [8],3.0
same,"herbicidal effect rating, ECHORC",[1]; [9],0.0
same,"herbicidal effect rating, ECHORC",[1]; [10],2.0
same,"herbicidal effect rating, ECHORC",[1]; [7],2.5
same,"herbicidal effect rating, ECHORC",[1]; [8],3.0
same,"herbicidal effect rating, MOOVA",[2]; [9],3.5
same,"herbicidal effect rating, MOOVA",[2]; [10],6.5
same,"herbicidal effect rating, MOOVA",[2]; [7],8.0
same,"herbicidal effect rating, MOOVA",[2]; [8],8.0
same,"herbicidal effect rating, SAGPY","Sagittaria pygmaea, L.; [9]",0.0
same,"herbicidal effect rating, SAGPY","Sagittaria pygmaea, L.; [10]",0.0
same,"herbicidal effect rating, SAGPY","Sagittaria pygmaea, L.; [7]",0.0
same,"herbicidal effect rating, SAGPY","Sagittaria pygmaea, L.; [8]",0.0
same,"herbicidal effect rating, CYPSE",[3]; [9],0.0
same,"herbicidal effect rating, CYPSE",[3]; [10],0.0
same,"herbicidal effect rating, CYPSE",[3]; [7],1.5
same,"herbicidal effect rating, CYPSE",[3]; [8],2.5
same,herbicidal effect rating ORYSAT,[4]; [9],2.5
same,herbicidal effect rating ORYSAT,[4]; [10],3.0
same,herbicidal effect rating ORYSAT,[4]; [7],3.5
same,herbicidal effect rating ORYSAT,[4]; [8],4.0
"Cn1c(C(F)(F)F)cc(=O)n(-c2ccc3snc(/C=N/Nc4ccccc4)c3c2)c1=O [Example 408, 1,2-Benzisothiazole-3-carboxaldehyde, 5-[3,6-dihydro-3-methyl-2,6-dioxo-4-(trifluoromethyl)-1(2H)-pyrimidinyl]-, 3-(phenylhydrazone), (E)-]",CYPIR,Cyperus iria; 0.0320 kg/ha,6.0
same,CYPIR,Cyperus iria; 0.0620 kg/ha,9.0
same,CYPIR,Cyperus iria; 0.1250 kg/ha,9.0
same,CYPIR,Cyperus iria; 0.2500 kg/ha,9.0
same,ECHORC,[1]; 0.0320 kg/ha,2.0
same,ECHORC,[1]; 0.0620 kg/ha,3.0
same,ECHORC,[1]; 0.1250 kg/ha,6.0
same,ECHORC,[1]; 0.2500 kg/ha,7.0
same,MOOVA,[2]; 0.0320 kg/ha,7.0
same,MOOVA,[2]; 0.0620 kg/ha,9.0
same,MOOVA,[2]; 0.1250 kg/ha,9.0
same,MOOVA,[2]; 0.2500 kg/ha,9.0
same,SAGPY,"Sagittaria pygmaea, L.; 0.0320 kg/ha",0.0
same,SAGPY,"Sagittaria pygmaea, L.; 0.0620 kg/ha",0.0
same,SAGPY,"Sagittaria pygmaea, L.; 0.1250 kg/ha",4.0
same,SAGPY,"Sagittaria pygmaea, L.; 0.2500 kg/ha",6.0
same,CYPSE,[3]; 0.0320 kg/ha,0.0
same,CYPSE,[3]; 0.0620 kg/ha,0.0
same,CYPSE,[3]; 0.1250 kg/ha,5.0
same,CYPSE,[3]; 0.2500 kg/ha,6.0
same,ORYSAT,[4]; 0.0320 kg/ha,0.0
same,ORYSAT,[4]; 0.0620 kg/ha,2.0
same,ORYSAT,[4]; 0.1250 kg/ha,2.0
same,ORYSAT,[4]; 0.2500 kg/ha,3.0
"Cc1ccc(OCC(=O)NS(=O)(=O)C(C)C)c(-c2nsc3ccc(-n4c(=O)cc(C(F)(F)F)n(C)c4=O)cc23)c1 [Example 560, Acetamide, 2-{{2-{5-[3,6-dihydro-3-methyl-2,6-dioxo-4-(trifluoromethyl)-1(2H)-pyrimidinyl]-1,2-benzisothiazol-3-yl}-p-tolyl}oxy}-N-(isopropylsulfonyl)-]","herbicidal effect rating, CYPIR",Cyperus iria; [11],0.0
same,"herbicidal effect rating, CYPIR",Cyperus iria; [12],2.0
same,"herbicidal effect rating, CYPIR",Cyperus iria; [13],7.0
same,"herbicidal effect rating, CYPIR",Cyperus iria; [14],9.0
same,"herbicidal effect rating, CYPIR",Cyperus iria; [15],3.0
same,"herbicidal effect rating, ECHORC",[1]; [11],2.0
same,"herbicidal effect rating, ECHORC",[1]; [12],3.0
same,"herbicidal effect rating, ECHORC",[1]; [13],4.6
same,"herbicidal effect rating, ECHORC",[1]; [14],9.0
same,"herbicidal effect rating, ECHORC",[1]; [15],7.0
same,"herbicidal effect rating, MOOVA",[2]; [11],8.0
same,"herbicidal effect rating, MOOVA",[2]; [12],9.0
same,"herbicidal effect rating, MOOVA",[2]; [13],9.0
same,"herbicidal effect rating, MOOVA",[2]; [14],9.0
same,"herbicidal effect rating, MOOVA",[2]; [15],9.0
same,"herbicidal effect rating, SAGPY","Sagittaria pygmaea, L.; [11]",0.0
same,"herbicidal effect rating, SAGPY","Sagittaria pygmaea, L.; [12]",0.0
same,"herbicidal effect rating, SAGPY","Sagittaria pygmaea, L.; [13]",0.0
same,"herbicidal effect rating, SAGPY","Sagittaria pygmaea, L.; [14]",0.0
same,"herbicidal effect rating, SAGPY","Sagittaria pygmaea, L.; [15]",0.0
same,"herbicidal effect rating, CYPSE",[3]; [11],0.0
same,"herbicidal effect rating, CYPSE",[3]; [12],2.0
same,"herbicidal effect rating, CYPSE",[3]; [13],7.0
same,"herbicidal effect rating, CYPSE",[3]; [14],9.0
same,"herbicidal effect rating, CYPSE",[3]; [15],9.0
same,herbicidal effect rating ORYSAT,[4]; [11],3.0
same,herbicidal effect rating ORYSAT,[4]; [12],3.0
same,herbicidal effect rating ORYSAT,[4]; [13],2.0
same,herbicidal effect rating ORYSAT,[4]; [14],4.0
same,herbicidal effect rating ORYSAT,[4]; [15],2.0
